# How the values were obtained:
# Human NSCLC A549 cells = settings: 60 mg/kg i.v. day 1, 4, 8, 11, 18, 25; 10% HPβCD formulation; balb/c nu/nu mice
# NCI-60 cell lines = experiment: NCI-60 cell line panel screening; type: cell-based, human; settings: vs Bendamustine
Compound,Body weight (Human NSCLC A549 cells) [g],T/C (%) (Human NSCLC A549 cells),Tumor volume (mm3) (Human NSCLC A549 cells),Tumor weight (Human NSCLC A549 cells) [g],fold more potent than Bendamustine in the NCI-60 cell lines (NCI-60 cell lines)
"Cn1c(CCCC(=O)O)nc2cc(N(CCCl)CCCl)ccc21 [Bendamustine, reference compound]",28.6,71.9,1716.5,1.97,–
Cn1c(CCCCCCC(=O)NO)nc2cc(N(CCCl)CCCl)ccc21 [NL-101],27.6,37.7,772.7,0.88,25-100 fold

# — patent publication US9376395B2 (priority 2011, dated 2016)
